Source: patent US20100047373A9, “Method for Extracting Plants of the Genus Pelargonium, Extract Produced According to Said Method, and Use Thereof” (EMSPHARM GMBH, priority 2005, published 2010)

Test system: EMC virus/L929 (IFN) test model
Test: Cytoprotective effect / IFN values in the EMC virus/L929 (IFN) test model
Format: cell-based, murine
Conditions: determined from 8 standard curves
Description: Determining the Cytoprotective Effect by Obtaining the Values for IFN in the EMC Virus/L929 (IFN) Test Model
L929 (IFN) cells (batch no. 5577) were cultured, trypsinized, washed and counted in 100-mL culture dishes. The suspension was adjusted to 2×10^5 cells/mL and sown in microtitre plates with 2×10^4 cells/well, which were incubated over night at 37° C., 5% CO2. After that, the supernatant was replaced by 100 μL each medium control, cell control, virus control with rMuIFN-γ control, rMuIFN-γ standard (100 U/mL) and test solution, all of which were diluted lineally.
The samples were incubated for exactly eight hours at 37° C., 5% CO2. After the end of the incubation time, 100 μL each of the vital suspension used were pipetted into the vital and interferon controls and into the test solutions and again incubated over night at 37° C., 5% CO2.
After 22 hours, fully developed viral activity appeared (cell lysis must be distinctly pronounced in the vital control), so that the lysis was interrupted. The supernatants were discarded via the wash basin 100 μl of a 0.5% crystal violet solution were pipetted into each well. […] The absorption of the crystal violet staining was determined on the ELISA reader at 550 nm. […] The ED50 value of the rMuIFN-γ standard was at 1,076 U/mL (determined from 8 standard curves).

Question: Which “ED50 value of the rMuIFN-γ standard” value does the source give for “rMuIFN-γ standard: rMuIFN-γ standard (100 U/mL) used in the EMC virus/L929 (IFN) test” here?
Answer: The value was 1,076 U/mL.
